Measurements: ChEMBL document CHEMBL1201862, “PubChem BioAssay data set” (2004)
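Interpolation was linear, between the two tested concentrations surrounding the appropriate level; five concentrations were tested over 48 hours in 96-well plates. GI50: concentration for 50% inhibition of growth.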 Calls of active or inactive are those of the source. No stated cut-off is given here; in the data, active = GI50 up to about 1.1 µM and inactive = higher.

How the values were obtained:
Experiment in all cases: NCI tumour cell line growth inhibition, 48 h
SR = tested on: SR
COLO 205 = tested on: COLO 205
SF-539 = tested on: SF-539
A498 = tested on: A498
UACC-62 = tested on: UACC-62
NCI-H460 = tested on: NCI-H460
SNB-78 = tested on: SNB-78
K562 = tested on: K562
MOLT-4 = tested on: MOLT-4
EKVX = tested on: EKVX
CCRF-CEM = tested on: CCRF-CEM
DLD-1 = tested on: DLD-1
786-0 = tested on: 786-0
CAKI-1 = tested on: CAKI-1
RXF 393 = tested on: RXF 393
Malme-3M = tested on: Malme-3M
DMS-114 = tested on: DMS-114

Measured: GI50

CC1=C(O)C(=O)C2C(=O)C1C(C)C2c1ccc(C)cc1 (configuration not stated)
inactive: SR > 100 µM | COLO 205 > 100 µM | SF-539 > 100 µM | A498 > 100 µM | UACC-62 > 100 µM | NCI-H460 > 100 µM | SNB-78 > 100 µM | K562 > 100 µM | MOLT-4 > 100 µM | EKVX > 100 µM | CCRF-CEM > 100 µM | DLD-1 > 100 µM | 786-0 > 100 µM | CAKI-1 > 100 µM | RXF 393 > 100 µM | Malme-3M > 100 µM

C[C@]12CC[C@H](OC(=O)Nc3ccccc3)CC1=CC[C@@H]1C2CC[C@]2(C)/C(=N/OC(=O)Nc3ccccc3)CCC12 (some centres not stated)
inactive: COLO 205 4.49 µM | SF-539 > 100 µM | DMS-114 2.71 µM | A498 > 100 µM | UACC-62 > 100 µM | NCI-H460 25.6 µM | SNB-78 > 100 µM | K562 2.21 µM | MOLT-4 5.05 µM | EKVX 30.1 µM | CCRF-CEM 2.83 µM | 786-0 > 100 µM | CAKI-1 1.81 µM | Malme-3M 1.72 µM

COc1ccc2c(c1)[n+]([O-])c(-c1nc3ccccc3s1)c(N)[n+]2[O-]
inactive: SR 59.6 µM | COLO 205 36.5 µM | SF-539 > 100 µM | A498 45.8 µM | NCI-H460 47.3 µM | SNB-78 > 100 µM | K562 64.4 µM | MOLT-4 43.8 µM | EKVX > 100 µM | DLD-1 69.2 µM | 786-0 > 100 µM | CAKI-1 > 100 µM | Malme-3M > 100 µM

C=CCNC(=O)N(CCCC(NC(C)=O)C(=O)NCc1ccccc1)Cc1ccccc1 (configuration not stated)
inactive: COLO 205 > 100 µM | SF-539 > 100 µM | DMS-114 > 100 µM | A498 > 100 µM | UACC-62 > 100 µM | NCI-H460 > 100 µM | K562 > 100 µM | MOLT-4 > 100 µM | EKVX > 100 µM | CCRF-CEM > 100 µM | 786-0 > 100 µM | CAKI-1 > 100 µM | RXF 393 > 100 µM | Malme-3M > 100 µM

O=C(CSc1nc(=O)c(-c2ccccc2NC(=O)C(F)(F)F)n[nH]1)NC(=O)Nc1ccccc1
inactive: SR > 100 µM | COLO 205 > 100 µM | SF-539 > 100 µM | UACC-62 50 µM | NCI-H460 72.6 µM | SNB-78 > 100 µM | K562 61.4 µM | MOLT-4 > 100 µM | EKVX 55.5 µM | CCRF-CEM 94.8 µM | DLD-1 18.9 µM | 786-0 > 100 µM | CAKI-1 48.1 µM | RXF 393 > 100 µM | Malme-3M > 100 µM
